This note sets out measurements from patent publication US9616006B2, “Methods and compositions for treating dermatological diseases and conditions” (priority 2007, dated 2017).

One may read the inhibition as the percentage by which the read-out fell short of the control.

One test has as its system PGE2. In words: TPA-induced PGE2 production in keratinocytes (ELISA). Type of test: cell-based, human. Particulars: Homo sapiens, Keratinocyte, read-out: Percent Inhibition of PGE2.
The test system of test [1] is IL-6. The test can be described thus: TPA-induced IL-6 production in keratinocytes (ELISA). It counts as cell-based, human. Particulars: Homo sapiens, Keratinocyte, read-out: Percent Inhibition of IL-6. For orientation: An ELISA detects its analyte on a solid surface through an enzyme-linked reagent.
The test system of a further test is TNF-α. In words: UV-induced TNF-α production in keratinocytes (ELISA). The settings on record: Homo sapiens, Keratinocyte, read-out: Percent Inhibition of TNF-α. It counts as cell-based, human. On the procedure:
(§1) In one study, various concentrations of DHE were added to culture medium and these media were placed on human fibroblast cell cultures (results shown in FIG. 1). Cells were either not induced or induced with UVB radiation to stimulate cytokine/PGE-2 production. At 24 hours after treatment, the cell culture medium was removed and assayed by ELISA methods for the expression of PGE-2, various cytokines and chemokines.
When similar experiments were carried out with human keratinocytes, DHE was again found to markedly suppress the UVR induction of PGE-2, with a concentration of 50 uM inhibiting the production of PGE-2 by over 60% (results shown in FIG. 2). […] Further, since PGE-2 is known to be a principal factor in the development of actinic keratosis and skin cancer, DHE can also be used in treating these conditions.
DHE and IE both have inhibitory effects on production of the inflammatory mediators in keratinocytes.

The subject of test [2] is PGE-2. The test can be described thus: IL-1-induced PGE-2 production in fibroblasts (ELISA). Particulars: Homo sapiens, Fibroblast, Fibroblasts (IL-1), read-out: Percent Inhibition of PGE-2. Type of test: cell-based, human. On the procedure: (§2) In one study, various concentrations of DHE were added to culture medium and these media were placed on human fibroblast cell cultures (results shown in FIG. 1). […] At 24 hours after treatment, the cell culture medium was removed and assayed by ELISA methods for the expression of PGE-2, various cytokines and chemokines.
(§3) DHE and IE both have inhibitory effects on the production of the inflammatory mediators in fibroblasts.

Test [3] deals with IL-6. In words: IL-1-induced IL-6 production in fibroblasts (ELISA). Type of test: cell-based, human. The settings on record: Homo sapiens, Fibroblast, Fibroblasts (IL-1), read-out: Percent Inhibition of IL-6. As for the experimental part: as §2, §3
Test [4] concerns IL-8. The test can be described thus: IL-1-induced IL-8 production in fibroblasts (ELISA). Type of test: cell-based, human. The settings on record: Homo sapiens, Fibroblast, Fibroblasts (IL-1), read-out: Percent Inhibition of IL-8.
Test [5] has as its system PGE-2. In words: UV-induced PGE-2 production in fibroblasts (ELISA). Particulars: Homo sapiens, Fibroblast; Fibroblasts (UV); 100 uM; read-out: Percent Inhibition of PGE-2. It counts as cell-based, human. On the procedure: as §1
As is shown in FIG. 1, UV radiation (UVR) treatment of fibroblasts results in a 6 fold increase in PGE-2.
as §3

Test [6] has as its system IL-8. The test can be described thus: LPS-induced IL-8 production in monocytes. It counts as cell-based. Particulars: Monocyte; Monocytes (LPS); 100 uM; read-out: Percent Inhibition of IL-8. The source says:
(§4) DHE and IE both have inhibitory effects on the production of the inflammatory mediators in monocytes.

The next test deals with MCP-1. In words: TNF-α-induced MCP-1 production in monocytes. It counts as cell-based. Particulars: Monocyte, read-out: Percent Inhibition of MCP-1.
From the text: as §4

Test [7] relates to IL-8. The test can be described thus: TNF-α-induced IL-8 production in monocytes. Particulars: Monocyte, read-out: Percent Inhibition of IL-8. Type of test: cell-based.
From the text: as §4

The test system of another test is collagen 1 mRNA. In words: Collagen mRNA in fibroblasts by RT-PCR. It counts as cell-based, human. The settings on record: fibroblast cell cultures treated 72 hours. The source says:
The presently claimed and disclosed inventive concept(s) further contemplates use of various DHE, IE and EV compositions and salts, esters, ethers, and derivatives thereof to mitigate the effects of aging on the skin. For all aging studies, normal human fibroblast cell cultures were used. These cells normally produce collagen, elastin and hyaluronic acid. As the skin ages, the fibroblasts in the dermis lose their ability to produce these three key components of skin, and the skin consequently loses elasticity, thickness and smooth texture. In addition, as fibroblasts age, they increase the expression of certain enzymes that destroy collagen and elastin. There are about 13 of these enzymes, collectively referred to as MMPs (matrix metalloproteinases). One of the principal MMPs, MMP-1, is responsible for collagen degradation. […] Fibroblast cell cultures were treated with either IE, DHE or EV for 72 hours at which time the amount of collagen mRNA present in the cells was determined.

For test [8], the system named is tyrosinase. The test can be described thus: Melanin synthesis in vitro from L-DOPA catalyzed by tyrosinase (test tube). Type of test: biochemical. On the procedure: Two ml of a sodium phosphate buffer, pH 6.8 containing 0.2% L-DOPA (dihydroxyphenylalanine—a tyrosinase substrate) were placed in each of two test tubes. To one test tube was added 20 microliters of ethanol and to the other tube was added 20 microliters of a 1M stock of IE made up in ethanol (labeled TH-212). To start melanin synthesis from the L-DOPA substrate, 20 microliters of a tyrosinase preparation (0.5 mg/ml) was added to both tubes, the tubes were mixed and left at room temperature. The photograph in FIG. 13 was taken 2 hours after the start of the reaction.

Test [9] relates to human melanocyte cultures. In words: Pigment in human melanocyte cultures. It counts as cell-based. Particulars: treated for 9 days.
Test [10] has as its system tyrosinase. In words: DOPA oxidase assay of cell extracts from treated human melanocytes. Type of test: cell-based. Particulars: extracts of human melanocytes treated for 9 days. On the procedure:
Cell lysates were prepared from human melanocytes. The amount of tyrosinase in these cell lysates was determined by DOPA oxidase assay.
(§5) FIGS. 14-17 show the skin-lightening effects of topically-applied formulations of isoeugenol and its ester isoeugenol acetate (a.k.a. isoeugenyl acetate) in the treatment of hyperpigmented areas in the skin, wherein a reduction of melanin pigment in the skin is caused by the topical application of the formulations. In addition to blocking a post-tyrosinase step in melanin synthesis, IE and IE acetate can inhibit the expression of the tyrosinase protein in human melanocytes. […] If the cell extracts contain tyrosinase when an aliquot of extract is placed in a tube containing L-DOPA (a tyrosinase substrate) in buffer, the enzyme will convert the DOPA to melanin. The melanin will appear brownish-black in the assay tube. If IE or IE-acetate has inhibited tyrosinase synthesis in melanocytes, then the extracts from these cells will contain no enzyme and will not be able to produce melanin from DOPA in the assay tube. […] In this assay, cell extracts from human melanocytes either left untreated or treated with 200 micromolar of either IE or isoeugenol acetate for 9 days are run on SDS polyacrylamide electrophoresis gels to separate tyrosinase from other proteins. The tyrosinase in the gel is then blotted to a membrane and the tyrosinase detected by staining with a specific anti-tyrosinase antibody. The antibody-bound tyrosinase is then visualized by chemiluminescence.

For test [11], the system named is tyrosinase. In words: Western immunoblot of tyrosinase abundance in human melanocyte extracts. It counts as cell-based.
From the text: as §5
Background: In western blotting, separated proteins are transferred to a membrane and probed.

Consider `CC=Cc1ccc(O)c(OC)c1` [IE, isoeugenol], for which the inhibition at 100 µM with PGE2 is 82%; with IL-6 [1], 94%; in the test with TNF-α it was 60%; with PGE-2 [2] it was 81%; in the test with IL-6 [3] it was 53%; with IL-8 [4], 98%. For the same compound, the inhibition at 100 µM worked out at 77% in the test with PGE-2 [5], 75% with IL-8 [6], 82% with MCP-1 and 78% in the test with IL-8 [7]. The “collagen production (collagen mRNA)” value in the test with collagen 1 mRNA is listed as “stimulation”. Also, the melanin synthesis result in the test on tyrosinase [8] (0.2% L-DOPA, pH 6.8, 20 microliters of 1M stock in 2 ml, tyrosinase, 2 hours, room temperature) is on record as “almost completely blocked”. In the test on tyrosinase [8] (tubes containing DOPA, IE and tyrosinase, even after 2 weeks), the “darkening of test tubes (melanin production)” value is on record as “fail to darken”. Further, in [9], the “pigment in human melanocyte cultures” value was “loss of pigment”. For the same compound, the “tyrosinase activity / melanin made from L-DOPA by cell extracts” value in the test with tyrosinase [10] is “very little melanin was made”; in the test with tyrosinase [10] (listed as TH-212), “absence of tyrosinase activity”. Moreover, the “tyrosinase abundance (relative densitometric units)” value in the test with tyrosinase [11] (human melanocyte extracts, 200 μM, 9 days, control approximately 7.25 RDU) is on record as “about 3 RDU”. Also, the “tyrosinase present (western immunoblot)” value in the test on tyrosinase [11] (human melanocytes treated with 200 micromolar for 9 days) was “almost no detectable tyrosinase”.
